Legend:
[1] = test system: rotenone‐induced mouse model of PD; assay: Colon length in rotenone model; conditions: rotenone mice, P < 0.05
[2] = test system: rotenone‐induced mouse model of PD; assay: α‐Synuclein immunofluorescent staining of colon in rotenone model; format: in vivo, male C57BL/6NCrl mice; conditions: rotenone mice
Procedure: (§1) Parkinson’s disease is associated with the activation of glial cells in the enteric nervous system. Furthermore, aggregates of α‐synuclein have been observed in the enteric nervous system of PD patients. The expression of glial fibrillary acidic protein (GFAP), a marker of enteric glial cells, and of α‐synuclein was determined by immunofluorescent staining of fixed sections of the colons of the sacrificed mice.
(§2) Expression of GFAP and α‐synuclein in colonic tissue was determined using confocal microscopy (Leica SP8). The colons of the mice were embedded in paraffin. Sections of 15 µm were cut and incubated with 0.3% (v/v) H2O2 for 30 min, rehydrated and incubated with citrate buffer. Following blocking with serum, the sections were incubated overnight with rabbit anti‐α‐synuclein (Millipore, cat. no. AB5038; Burlington, MA, USA) at a dilution of 1 : 1000, or rabbit anti‐GFAP (Dako, cat. no. Z0334), 1 : 1000. After incubation with Alexa® 488‐labeled donkey anti‐rabbit secondary antibody, the slides were mounted using Vectashield® medium for fluorescence with DAPI (Vector Laboratories, cat. no. H‐1000; Burlingame, CA, USA).
(§3) Immunofluorescence images were made using a Keyence BZ‐9000 microscope. GFAP and α‐synuclein staining were quantified by calculation of the corrected total fluorescence (CTF) with the formula: integrated density – (area × mean fluorescence of background reading).

[3] = test system: rotenone‐induced mouse model of PD; assay: Intestinal transit of Evans blue in rotenone model; format: in vivo, male C57BL/6NCrl mice; conditions: P < 0.0001
Procedure: The dye was injected intragastrically, thirty minutes before the sacrifice of the mice. Intestinal transit was measured as the distance travelled by the dye from the pylorus to the most distal part of the colon.

TDO activity in vivo = assay: Trp and Kyn levels in plasma and brain of the PK studies (LC‐MS/MS); set-up: species or system male C57BL/6NCrl mice; conditions: mice
[4] = test system: rotenone‐induced mouse model of PD; assay: GFAP immunofluorescent staining of colon in rotenone model; format: in vivo, male C57BL/6NCrl mice; conditions: rotenone mice
Procedure: as §1, §2, §3

[5] = target: hTDO2‐overexpressing HEK‐293 cells (HEK‐hTDO) (Homo sapiens, UniProt P48775); assay: Cell-based TDO assay, HEK‐hTDO cells (NFK Green)
Chain of hTDO2‐overexpressing HEK‐293 cells (HEK‐hTDO) (P48775 whole entry): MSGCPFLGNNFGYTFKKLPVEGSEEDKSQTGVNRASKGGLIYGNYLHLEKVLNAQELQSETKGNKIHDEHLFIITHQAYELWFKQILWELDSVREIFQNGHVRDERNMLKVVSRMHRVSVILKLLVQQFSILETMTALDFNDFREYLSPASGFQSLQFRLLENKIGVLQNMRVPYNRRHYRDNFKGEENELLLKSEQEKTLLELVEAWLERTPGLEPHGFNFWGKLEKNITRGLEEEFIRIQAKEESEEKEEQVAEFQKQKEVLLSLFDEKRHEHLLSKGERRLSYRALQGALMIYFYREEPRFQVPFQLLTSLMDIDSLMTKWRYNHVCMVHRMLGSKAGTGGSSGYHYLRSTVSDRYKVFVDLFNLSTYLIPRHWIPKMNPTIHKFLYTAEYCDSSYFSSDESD

[6] = target: T1, human MDR1 P‐glycoprotein‐overexpressing MDCK cells (Homo sapiens, UniProt P08183); assay: Bi‐directional transport assay, MDCK‐MDR1 monolayer; format: in vitro ADME; conditions: MDCK‐MDR1, with and without elacridar
T1 construct: host or cells: MDCK (canine kidney)
T1 sequence (P08183 whole entry): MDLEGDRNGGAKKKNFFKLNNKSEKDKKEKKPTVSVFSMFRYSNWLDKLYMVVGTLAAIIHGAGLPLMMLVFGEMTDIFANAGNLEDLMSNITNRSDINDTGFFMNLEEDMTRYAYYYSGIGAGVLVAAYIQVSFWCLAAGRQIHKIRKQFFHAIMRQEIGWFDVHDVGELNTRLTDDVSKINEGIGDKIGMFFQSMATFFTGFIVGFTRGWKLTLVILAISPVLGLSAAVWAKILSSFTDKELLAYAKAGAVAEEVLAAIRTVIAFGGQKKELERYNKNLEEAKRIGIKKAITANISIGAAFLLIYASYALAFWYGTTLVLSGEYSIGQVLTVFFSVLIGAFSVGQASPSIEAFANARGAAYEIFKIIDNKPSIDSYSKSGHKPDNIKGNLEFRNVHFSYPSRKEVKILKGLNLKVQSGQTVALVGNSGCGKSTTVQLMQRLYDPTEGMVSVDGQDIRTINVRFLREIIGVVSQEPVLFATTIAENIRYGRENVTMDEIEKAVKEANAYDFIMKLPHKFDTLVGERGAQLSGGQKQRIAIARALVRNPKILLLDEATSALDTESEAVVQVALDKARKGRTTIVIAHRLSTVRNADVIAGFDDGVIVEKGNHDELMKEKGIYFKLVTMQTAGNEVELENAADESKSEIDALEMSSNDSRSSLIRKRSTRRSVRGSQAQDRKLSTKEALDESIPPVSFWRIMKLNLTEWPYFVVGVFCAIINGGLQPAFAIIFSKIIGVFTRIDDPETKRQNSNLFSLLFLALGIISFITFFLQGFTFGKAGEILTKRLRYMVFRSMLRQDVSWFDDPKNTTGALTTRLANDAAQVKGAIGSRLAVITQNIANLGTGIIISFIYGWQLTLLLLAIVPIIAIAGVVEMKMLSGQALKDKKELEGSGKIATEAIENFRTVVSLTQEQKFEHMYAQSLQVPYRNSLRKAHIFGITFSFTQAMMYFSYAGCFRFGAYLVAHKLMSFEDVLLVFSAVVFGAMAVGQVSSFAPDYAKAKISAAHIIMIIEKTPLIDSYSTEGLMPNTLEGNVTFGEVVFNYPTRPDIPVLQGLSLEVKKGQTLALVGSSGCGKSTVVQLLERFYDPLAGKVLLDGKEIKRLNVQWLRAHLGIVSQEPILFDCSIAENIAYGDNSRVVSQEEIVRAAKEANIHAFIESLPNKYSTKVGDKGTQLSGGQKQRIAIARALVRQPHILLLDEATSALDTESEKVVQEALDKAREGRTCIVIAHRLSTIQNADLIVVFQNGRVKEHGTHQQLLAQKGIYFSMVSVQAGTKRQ
Procedure: (§4) To determine whether NTRC 3531‐0 could potentially enter the brain, a bi‐directional transport assay was performed with Madin‐Darby canine kidney (MDCK) cells overexpressing the human ABCB1 gene‐encoded MDR1 P‐glycoprotein (MDCK‐MDR1) at Cyprotex (Macclesfield, UK). MDCK‐MDR1 cells form a confluent monolayer in Transwell® cell culture plates (Corning) and express active MDR1 P‐glycoprotein at the apical side. The cell model is a surrogate model of the brain capillary endothelial cell layer that constitutes the blood–brain barrier. The transport of NTRC 3531‐0 from the apical (A) to the basolateral (B) side of the monolayer (P app, A to B), and from basolateral (B) to apical (A) (P app, B to A), was determined by measuring compound levels in the two compartments of the Transwell plates by liquid chromatography–tandem mass spectrometry (LC‐MS/MS) (Table 2). Transport assays were performed in the absence and presence of the P‐glycoprotein inhibitor elacridar.

[7] = target: T2, human MDR1 P-glycoprotein (ABCB1) (Homo sapiens, UniProt P08183); assay: as above; format: in vitro ADME; conditions: dog; MDCK‐MDR1; Elacridar −
T2 construct: host or cells: MDCK (canine kidney)
T2 sequence (P08183 whole entry): as above
Procedure: as §4

GL‐261‐mTDO = target: T3, GL‐261‐mTDO (Mus musculus, UniProt P48776); assay: Cell-based TDO assay, GL‐261‐mTDO cells (pDMAB)
T3 construct: stably overexpressing the full‐length mouse TDO2 cDNA (GL‐261‐mTDO); expressed in transfected cells; host or cells: GL-261
T3 sequence (P48776 whole entry): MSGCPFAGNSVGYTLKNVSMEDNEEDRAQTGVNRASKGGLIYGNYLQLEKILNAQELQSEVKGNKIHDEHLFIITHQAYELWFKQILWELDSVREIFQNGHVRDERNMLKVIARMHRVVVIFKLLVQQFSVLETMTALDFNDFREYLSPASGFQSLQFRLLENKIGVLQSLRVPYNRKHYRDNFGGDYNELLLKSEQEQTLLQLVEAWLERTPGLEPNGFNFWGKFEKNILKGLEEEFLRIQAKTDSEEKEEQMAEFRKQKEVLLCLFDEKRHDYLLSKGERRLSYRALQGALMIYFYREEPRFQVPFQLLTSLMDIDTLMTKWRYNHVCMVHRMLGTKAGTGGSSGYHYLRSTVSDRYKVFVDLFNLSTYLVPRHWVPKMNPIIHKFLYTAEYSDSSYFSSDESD

[8] = target: human IDO1‐overexpressing HEK‐293 cells (HEK‐hIDO1) (Homo sapiens, UniProt P14902); assay: Cell-based IDO1 assay, HEK‐hIDO1 cells (NFK Green)
Chain of human IDO1‐overexpressing HEK‐293 cells (HEK‐hIDO1) (P14902 whole entry): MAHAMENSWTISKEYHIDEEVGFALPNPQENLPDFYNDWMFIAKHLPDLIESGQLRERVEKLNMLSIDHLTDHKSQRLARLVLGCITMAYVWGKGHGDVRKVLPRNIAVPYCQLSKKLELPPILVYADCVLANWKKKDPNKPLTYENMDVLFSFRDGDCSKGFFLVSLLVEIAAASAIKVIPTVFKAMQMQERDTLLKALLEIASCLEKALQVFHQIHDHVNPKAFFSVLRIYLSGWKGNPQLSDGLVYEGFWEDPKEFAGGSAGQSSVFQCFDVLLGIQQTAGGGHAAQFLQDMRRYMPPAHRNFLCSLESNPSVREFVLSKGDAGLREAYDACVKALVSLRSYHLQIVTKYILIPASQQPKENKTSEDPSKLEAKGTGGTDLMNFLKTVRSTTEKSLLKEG
Procedure: Inhibition of Trp‐to‐NFK conversion in HEK‐hTDO, HEK‐hIDO1, and SW48 cells was measured with NFK Green, essentially as described previously for cancer cell lines. Cell density, incubation time, and Trp concentrations were optimized. For the TDO assay with HEK‐hTDO and SW48 cells, 200 µM Trp was added to the culture medium. No additional Trp was added for the IDO1 assay with HEK‐hIDO1 cells. The incubation time with compound was 42 h for the assays with HEK‐hTDO and HEK‐hIDO1 cells, and 18 h for the assay with SW48 cells.

[9] = test system: rotenone‐induced mouse model of PD; assay: Microglia (Iba1) volume and occupied space in substantia nigra, iDISCO; conditions: P < 0.05
[10] = test system: any cell line used in this study; assay: Cell viability assay (ATPlite 1Step); conditions: in parallel with the cell‐based NFK Green assays
Procedure: In parallel with the cell‐based NFK Green assays, the cytotoxicity of the compounds was determined in cell viability assays using ATPlite™ 1Step (PerkinElmer, Groningen, The Netherlands).

mouse TDO (mTDO) = mouse TDO (mTDO) (Mus musculus, UniProt P48776); assay: TDO biochemical assay (NFK Green), mTDO
Chain of mouse TDO (mTDO) (P48776 whole entry): as the sequence (P48776 whole entry) above

[11] = test system: rotenone‐induced mouse model of PD; assay: Rotarod test in rotenone model; format: in vivo, male C57BL/6NCrl mice
Procedure: To investigate the effects of TDO inhibition, both compounds were orally administered once daily from day 7 after induction of the PD model (Fig. 5A). […] In this test, the time spent on an accelerating wheel was used to analyze motor function.
Food and water was provided ad libitum.
Motor function was assessed in the rotarod test by placing mice on an accelerating rod with speeds starting at 2 rpm and gradually increasing to 20 rpm. The latency to fall was recorded for a maximum of 300 s. Baseline motor function was tested seven days after surgery, and subsequently, motor function was tested every seven days until day 42.

[12] = two highest doses (25 and 50 mg·kg^−1)

C[C@@H](CO)NC(=O)c1ccc(-c2c[nH]c3cc(F)ccc23)cc1 [NTRC 3531‐0]
colon length (rotenone‐induced intestinal inflammatory response) ([1]; highest dose (100 mg·kg^−1)): reduced the rotenone‐induced intestinal inflammatory response
expression of α‐synuclein in the enteric plexus ([2]; all doses: 25 mg·kg^−1, P < 0.05, 50 and 100 mg·kg^−1, P < 0.01): decrease in the expression of α‐synuclein
intestinal transit of the PD mice ([3]; highest dose (100 mg·kg^−1)): improved the intestinal transit
Kyn levels in plasma at early timepoints (TDO activity in vivo; single p.o. 100 mg·kg^−1, 0.25 and 0.5 h, no statistical significance): slightly decreased
Kyn levels in plasma, subsequent timepoints (TDO activity in vivo; single p.o. 100 mg·kg^−1, 1 and 2 h, P < 0.05): increased
concentration of Trp in plasma compared to vehicle (TDO activity in vivo; single p.o. 100 mg·kg^−1, 1 h P < 0.01, 2 h P < 0.0001, 7 h P < 0.01): increase
Kyn levels in brain (TDO activity in vivo; single p.o. 100 mg·kg^−1, 12 h P < 0.01, 24 h P < 0.05): increased
concentration of Trp in brain compared to vehicle (TDO activity in vivo; single p.o. 100 mg·kg^−1, P < 0.0001 at 1, 12 and 24 h): increase
GFAP staining in colon ([4]; highest two doses (50 and 100 mg·kg^−1), P < 0.0001 for both doses): decrease of GFAP staining
IC50 [5]: 0.816 µM
selectivity for hTDO over hIDO1, HEK‐293 cell‐based assays [5]: at least 25 times
IC90 ([5]; HEK293): 2.5 µM
P‐glycoprotein substrate status [6]: could be a weak substrate of P‐glycoprotein
Papp A→B [7]: 157 nm/s
Papp B→A [7]: 520 nm/s
efflux ratio [7]: 3.32
IC50 (GL‐261‐mTDO): 0.214 µM
IC50 ([8]; cell-based assay, read-out: Potency (IC50) HEK‐hIDO1 (converted)): 20.7 µM
mean microglia volume in the SN of rotenone‐treated mice ([9]; highest dose (100 mg·kg^−1)): reduced the mean microglia volume
cytotoxicity [10]: not cytotoxic
IC50 (mouse TDO (mTDO)): 0.846 µM
motor function (rotarod) of rotenone‐treated mice ([11]; two highest doses p.o. once daily: 50 mg·kg^−1, P < 0.01 at day 35, 100 mg·kg^−1, P < 0.01): significantly improved motor function

Fc1ccc2c(/C=C/c3nnn[nH]3)c[nH]c2c1 [LM10, reference compound]
colon length (rotenone‐induced intestinal inflammatory response) [1, 12]: reduced the rotenone‐induced intestinal inflammatory response
expression of α‐synuclein in the enteric plexus ([2]; all doses: 12.5 mg·kg^−1, P < 0.01, 25 and 50 mg·kg^−1, P < 0.001): decrease in the expression of α‐synuclein
intestinal transit of the PD mice [3, 12]: improved the intestinal transit
Trp levels in plasma and brain compared to vehicle (TDO activity in vivo; single p.o. 50 mg·kg^−1): no increase
Kyn levels in plasma (TDO activity in vivo; single p.o. 50 mg·kg^−1, 0.25 h P < 0.01, 0.5 h P < 0.05): only the initial decrease in Kyn levels was found to be significant
GFAP staining in colon ([4]; highest two doses: 25 mg·kg^−1, P < 0.001, 50 mg·kg^−1, P < 0.0001): decrease of GFAP staining
inhibition at 0.6 µM ([5]; HEK293, read-out: inhibition HEK‐hTDO): 33%
P‐glycoprotein substrate status [6]: not a P‐glycoprotein substrate
Papp A→B [7]: 56.3 nm/s
Papp B→A [7]: 15.8 nm/s
inhibition at 0.6 µM (GL‐261‐mTDO; read-out: inhibition GL‐261‐mTDO): 42%
inhibition at 0.6 µM ([8]; HEK293, read-out: inhibition HEK‐hIDO1): < 20%
mean microglia volume in the SN of rotenone‐treated mice ([9]; highest dose (50 mg·kg^−1)): reduced the mean microglia volume
cytotoxicity [10]: not cytotoxic
IC50 (mouse TDO (mTDO)): 1.07 µM
motor function (rotarod) of rotenone‐treated mice ([11]; highest dose p.o. once daily: 50 mg·kg^−1, P < 0.05): significantly improved motor function
